Source: patent publication US5691373A, “Nonpeptide endothelin antagonists I” (Warner-Lambert Company, priority 1995, dated 1997)
Like-named read-outs stand apart in the source and are kept apart here.

Tests used:
[1] = molecular target: T1, ETA (Oryctolagus cuniculus, UniProt A5A8K3); conditions: for inhibition at 10 µM: read-out: ERBA-A % inhibition
T1 sequence (A5A8K3 21-427): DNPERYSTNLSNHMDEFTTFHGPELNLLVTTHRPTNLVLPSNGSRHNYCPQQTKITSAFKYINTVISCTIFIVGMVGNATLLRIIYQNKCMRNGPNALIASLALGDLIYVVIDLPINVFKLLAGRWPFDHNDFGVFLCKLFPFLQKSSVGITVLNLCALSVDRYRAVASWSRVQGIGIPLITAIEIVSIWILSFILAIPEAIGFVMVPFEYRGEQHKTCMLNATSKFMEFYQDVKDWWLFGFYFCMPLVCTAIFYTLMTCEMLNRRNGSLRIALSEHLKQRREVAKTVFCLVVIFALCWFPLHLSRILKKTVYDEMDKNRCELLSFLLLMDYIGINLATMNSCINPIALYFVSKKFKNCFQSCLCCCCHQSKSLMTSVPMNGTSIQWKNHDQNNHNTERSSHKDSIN
Experimental: The cells used were rabbit renal artery vascular smooth muscle cells grown in a 48-well dish (1 cm^2) (confluent cells).
The growth media was Dulbecco's Modified Eagles/Ham's F12 which contained 10% fetal bovine serum and antibiotics (penicillin/streptomycin/fungizone).
Second, remove the assay buffers, place the dish on ice, and add 150 μL of cold assay buffer described above to each well. […] Next, place dish in a 37° C., water bath for about 2 hours and gently agitate the dish every 15 minutes. Discard the radioactive incubation mixture in the sink and wash wells 3 times with 1 mL of cold phosphate buffered saline.

[2] = molecular target: T2, ETB (Rattus norvegicus, UniProt P21451); conditions: for inhibition at 10 µM: read-out: ERBA-B % inhibition
T2 sequence (P21451 27-442): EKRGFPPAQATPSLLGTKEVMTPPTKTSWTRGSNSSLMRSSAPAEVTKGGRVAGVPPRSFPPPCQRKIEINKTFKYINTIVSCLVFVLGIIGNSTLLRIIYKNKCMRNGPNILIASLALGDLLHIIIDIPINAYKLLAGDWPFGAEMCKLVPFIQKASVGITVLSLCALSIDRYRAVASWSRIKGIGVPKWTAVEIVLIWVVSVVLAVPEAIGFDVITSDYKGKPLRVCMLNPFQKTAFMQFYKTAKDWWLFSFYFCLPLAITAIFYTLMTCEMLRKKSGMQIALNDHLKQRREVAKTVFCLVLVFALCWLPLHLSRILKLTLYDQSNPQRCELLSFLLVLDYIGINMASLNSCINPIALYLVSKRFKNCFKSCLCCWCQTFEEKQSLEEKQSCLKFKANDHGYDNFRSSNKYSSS

[3] = ERBA-A IC50, [125I]-ET-1, rabbit renal artery vascular smooth muscle cells

SMILES	IC50 [1, 3] [nM]	IC50 [2] [nM]	also measured
O=C1OC(O)(c2ccc(Cl)cc2)C(Cc2ccsc2)=C1c1ccc2c(c1)OCO2 (stereo not drawn) [Example 48, 2(5H)-Furanone, 3-(1,3-benzodioxol-5-yl)-5-(4-chlorophenyl)-5-hydroxy-4-(3-thienylmethyl)-]	1200	6200	–
CC(C)c1ccc(CC2=C(c3ccc4c(c3)OCO4)C(=O)OC2(O)c2ccc(Cl)cc2)cc1 (racemic) [Example 45, 2(5H)-Furanone, 3-(1,3-benzodioxol-5-yl)-5-(4-chlorophenyl)-5-hydroxy-4-[[4-(1-methylethyl)phenyl]methyl]-, (35)-]	1500	9100	–
COc1ccc(C2(O)OC(=O)C(c3cc(OC)cc(OC)c3)=C2Cc2cccc(C=O)c2)cc1 (stereo not drawn) [Example 134, 3-[4-(3,5-Dimethoxyphenyl)-2-hydroxy-2-(4-methoxyphenyl)-5-oxo-2,5-dihydrof uran-3-ylmethyl]benzaldehyde]	24	1200	–
CC(C)c1ccc(C2=C(Cc3ccc4ccccc4c3)C(O)(c3ccc(Cl)cc3)OC2=O)cc1 (racemic) [Example 41, 2(5H)-Furanone, 5-(4-chlorophenyl)-5-hydroxy-3-[4-(1-methylethyl)phenyl]-4-(2-naphthalenylmethyl)-, (±)-]	–	9000	inhibition at 10 µM [1]: 37%
O=C1OC(O)(c2ccc(Cl)cc2)C(Cc2cccs2)=C1c1ccc2c(c1)OCO2 (stereo not drawn) [Example 35, 2(5H)-Furanone, 3-(1,3-benzodioxol-5-yl)-5-(4-chlorophenyl)-5-hydroxy-4-(2-thienylmethyl)-]	1100	3300	–
C=CCOc1cc(OC)ccc1C1(O)OC(=O)C(c2ccc3c(c2)OCO3)=C1Cc1ccccc1 (stereo not drawn) [Example 329, 3-Benzo[1,3]dioxol-5-yl-5-hydroxy-5-(2-allyloxy-4-methoxy-phenyl)-4-benzyl-5H-furan-2one]	110	110	–
Cc1cccc(CC2=C(c3ccc4c(c3)OCO4)C(=O)OC2(O)c2ccc(Cl)cc2)c1 (stereo not drawn) [Example 34, 2(5H)-Furanone, 3-(1,3-benzodioxol-5-yl)-5-(4-chlorophenyl)-5-hydroxy-4-[(3-methylphenyl)methyl]-]	1300	7000	–
COc1ccc(CC2=C(c3ccc4c(c3)OCO4)C(=O)OC2(O)c2ccc(Cl)cc2)cc1 (stereo not drawn) [Example 32, 2(5H)-Furanone, 3-(1,3-benzodioxol-5-yl)-5-(4-chlorophenyl)-5-hydroxy-4-[(4-methoxyphenyl)methyl]-]	1000	6300	–
COc1ccc(C2=C(Cc3ccc(C(C)C)cc3)C(O)(c3ccc(Cl)cc3)OC2=O)cc1OC (racemic) [Example 70, 2(5H)-Furanone, 5-(4-chlorophenyl)-3-(3,4-dimethoxyphenyl)-5-hydroxy-4-[[4-(1-methylethyl)phenyl]methyl]-, (±)-]	9300	15000	–
Cc1ccccc1C1(O)OC(=O)C(c2ccc3c(c2)OCO3)=C1Cc1ccccc1 (stereo not drawn) [Example 216, 3-Benzo[1,3]dioxol-5-yl-4-benzyl-5-hydroxy-5-o-tolyl-5H-furan-2-one]	290	8000	–
COc1ccc(C2(O)OC(=O)C(c3cccc(OC)c3)=C2Cc2ccccc2)cc1 (stereo not drawn) [Example 153, 4-Benzyl-5-hydroxy-5-(4-methoxyphenyl)-3-(3-methoxyphenyl)-5H-furan-2-one]	360	2000	–
O=C1OC(O)(c2ccc(Cl)cc2)C(Cc2cccc3ccccc23)=C1c1ccc2c(c1)OCO2 (racemic) [Example 44, 2(5H)-Furanone) 3-(1,3-benzodioxol-5-yl)-5-(4-chlorophenyl)-5-hydroxy-4-(1-naphthalenylmethyl)-, (±)-]	2800	–	inhibition at 10 µM [2]: 35%
O=C1OC(O)(c2ccccc2)C(Cc2cccs2)=C1c1ccc2c(c1)OCO2 (stereo not drawn) [Example 25, 2(5H)-Furanone, 3-(1,3-benzodioxol-5-yl)-5-hydroxy-5-phenyl-4-(2-thienylmethyl)-]	1700	15600	–
O=C1OC(O)(c2ccc(Cl)cc2)C(Cc2ccc3c(c2)OCO3)=C1c1ccc(Cl)c(Cl)c1 (racemic) [Example 69, 2(5H)-Furanone, 4-(1,3-benzodioxol-5-ylmethyl)-5-(4-chlorophenyl)-3-(3,4-dichlorophenyl)-5-hydroxy-, (±)-]	9100	8400	–
CC(C)c1ccc(C2=C(Cc3ccc4c(c3)OCO4)C(O)(c3ccc(Cl)cc3)OC2=O)cc1 (racemic) [Example 42, 2(5H)-Furanone, 4-(1,3-benzodioxol-5-ylmethyl)-5-(4-chlorophenyl)-5-hydroxy-3-[4-(1-methylethyl)phenyl]-, (±)-]	–	–	inhibition at 10 µM [1]: 36%; inhibition at 10 µM [2]: 54%
COc1cccc(C2(O)OC(=O)C(c3ccc4c(c3)OCO4)=C2Cc2ccccc2)c1 (stereo not drawn) [Example 220, 3-Benzo[1,3]dioixol-5-yl-4-benzyl-5-hydroxy-5-(3-methoxyphenyl)-5H-furan-2-one]	300	1500	–
COc1ccc(CC2=C(c3ccc(OC)c(OC)c3)C(=O)OC2(O)c2ccc(Cl)cc2)cc1OC (racemic) [Example 68, 2(5H)-Furanone, 5-(4-chlorophenyl)-3-(3,4-dimethoxyphenyl)-4-[(3,4-dimethoxyphenyl)methyl]-5-hydroxy-, (±)-]	1700	9800	–
COc1ccc(C2(O)OC(=O)C(c3ccc4c(c3)OCO4)=C2Cc2ccc(Br)cc2)cc1 (stereo not drawn) [Example 83, 3-Benzo[1,3]dioxol-5-yl-4-(4-bromobenzyl)-5-hydroxy-5-(4-methoxyphenyl)-5H-furan-2-one]	71	500	–
O=C1OC(O)(c2ccc(Cl)cc2)C(Cc2ccc3ccccc3c2)=C1c1ccc2c(c1)OCO2 (racemic) [Example 43, 2(5H)-Furanone, 3-(1,3-benzodioxol-5-yl)-5-(4-chlorophenyl)-5-hydroxy-4-(2-naphthalenylmethyl)-, (±)-]	–	–	IC50 ([1]; read-out: ERBA-A IC50, [125I]-ET-1, rabbit renal artery vascular smooth muscle cells): 2700 nM; IC50 ([2]; read-out: ERBA-B IC50, [125I]-ET-1, rat cerebellar membranes): 7000 nM
O=C1OC(O)(c2ccccc2)C(Cc2ccsc2)=C1c1ccc2c(c1)OCO2 (stereo not drawn) [Example 26, 2(5H)-Furanone, 3-(1,3-benzodioxol-5-yl)-5-hydroxy-5-phenyl-4-(3-thienylmethyl)-]	790	15500	–
COc1ccc(C2=C(Cc3ccc(Cl)c(Cl)c3)C(O)(c3ccc(Cl)cc3)OC2=O)cc1OC (racemic) [Example 73, 2(5H)-Furanone, 5-(4-chlorophenyl)-4-[(3,4-dichlorophenyl)methyl]-3-(3,4-dimethoxyphenyl)-5-hydroxy-, (±)-]	21000	13000	–
COc1ccc(C2=C(Cc3ccc4c(c3)OCO4)C(O)(c3ccc(Cl)cc3)OC2=O)cc1OC (racemic) [Example 65, 2(5H)-Furanone, 4-(1,3-benzodioxol-5-ylmethy)-5-(4-chlorophenyl)-3-(3,4-dimethoxyphenyl)-5-hydroxy, (±)-]	9300	6000	–
CC(C)c1ccc(C2=C(Cc3ccccc3)C(O)(c3ccc(Cl)cc3)OC2=O)cc1 (racemic) [Example 4, 2(5H)-Furanone, 5-(4-chlorophenyl)-5-hydroxy-3-[4-(1-methylethyl)phenyl]-4-(phenylmethyl)- , (±)-]	–	–	inhibition at 10 µM [1]: 34%; inhibition at 10 µM [2]: 52%
O=C1OC(O)(c2c(F)cccc2F)C(Cc2ccccc2)=C1c1ccc2c(c1)OCO2 (stereo not drawn) [Example 158, 3-Benzo[1,3]dioxol-5-yl-4-benzyl-5-(2,6-difluorophenyl)-5-hydroxy-5H-furan-2-one]	2300	21000	–
